According to patent US6841556B2, “Pyrazoloisoquinoline derivatives for inhibiting NFκB-inducing kinase” (Aventis Pharma Deutschland GmbH, priority 2002, dated 2005):

Tests used:
[1] = system: human peripheral blood lymphocytes; test: Cytotoxicity by LDH release, LPS-stimulated human peripheral blood lymphocytes; assay type: cell-based
Description: (§1) The pyrazoloisoquinoline derivatives according to the invention were tested for inhibitory activity against NIK in various in vitro assay systems. In this connection, human peripheral blood lymphocytes were preincubated for 1 h with different concentrations of the compounds and then stimulated for 24 h with LPS or IL1β. After that, a commercially obtainable ELISA test kit was used to measure the release of TNFα in the culture supernatant, and the IC50 for the given compound was determined. The cytotoxicity was measured by way of LDH release using a commercially obtainable test kit and the LD50 for the given compound was determined.

[2] = system: human peripheral blood lymphocytes; test: Cytotoxicity by LDH release, IL1β-stimulated human peripheral blood lymphocytes; assay type: cell-based
Description: as §1

Compound	Cytotoxicity LD50 [1] [µM]	Cytotoxicity LD50 [2] [µM]
c1ccc(-c2nc3c(-c4ccccc4)n[nH]c3c3ccccc23)cc1 [Example 1, 3,5-Diphenyl-1H-pyrazolo[4,3-c]isoquinoline]	>100	>100
COc1cccc(-c2nc3c(C)n[nH]c3c3ccccc23)c1 [Example 2, 5-(3-Methoxyphenyl)-3-methyl-1H-pyrazolo[4,3-c]isoquinoline]	>100	>100
Cc1n[nH]c2c1nc(-c1cccc(O)c1)c1ccccc12 [Example 3, 3-(3-Methyl-1H-pyrazolo[4,3-c]isoquinolin-5-yl)phenol]	>100	>100
